In patent publication US20260216158A1, “OCULAR IMPLANT CONTAINING A TYROSINE KINASE INHIBITOR” (OCULAR THERAPEUTIX, INC., priority 2023, published 2026):
≈ marks a conversion by molar mass, not a printed value. Where “and” joins values, the source holds several entries; their conditions need not be identical. Equal values may be shown once.

Experiments:
[1] = Stability studies of axitinib co-crystals (Example 4.4); assay type: physicochemical
Source text: The results are also depicted in Table 8.

[2] = Solubility of axitinib prodrugs in PBS, 24 h at 22° C., HPLC (Example 6.2); assay type: physicochemical; conditions: for Mean Solubility / solubility at 24 h: PBS pH 7.2 to 7.4, 24 hours incubation at 22° C.; for solubility at 24 h / Obtained Conc. (replicate): PBS; for solubility at 24 h: 22 °C, pH 7.2, aqueous buffer, thermodynamic from solid; for Obtained Conc. (replicate): 24 h at 22° C., after dilution factor, replicates R1, R2
Experimental: • PBS, pH 7.2 • 24 h at 22° C. with continuous shaking • Solubility of test item was determined by HPLC analysis with calibration curve

[3] = as above; assay type: physicochemical; conditions: pH 7.4, replicates R1, R2
[4] = PBS pH 7.4, 37° C.
[5] = Stability of axitinib polymorph IV in an implant throughout 6 months (Example 11); assay type: physicochemical
[6] = Solubility of axitinib free base polymorphs (SAB-I, Polymorph IV) in PBS (Example 6.1); conditions: for Solubility in PBS, Day 1 / Solubility in PBS, Day2 / Solubility in PBS, Day 5 / Solubility in PBS, Day 6 / Solubility in PBS, Day 8 / Equilibrium solubility in PBS, Average (Days 5-8): 37° C., pH 7.2 to 7.4; for Solubility in PBS, Day2: day 2; for Equilibrium solubility in PBS, Average (Days 5-8): average of days 5, 6 and 8, UPLC
Solubility of axitinib = assay type: physicochemical; conditions: PBS, 37 °C, pH 7.2, aqueous buffer, thermodynamic from solid; read-out: Solubility in PBS pH 7.2-7.4 (37° C., 5 days)
physchem [7] = conditions: aqueous with cosolvent or surfactant or cyclodextrin
physchem [8] = conditions: PBS, 37 °C, pH 7.4, aqueous buffer, thermodynamic from solid
[9] = NHP study: bioanalysis of axitinib in plasma; assay type: in vivo, Cynomolgus monkeys; conditions: at sacrifice time points, LLOQ 0.100 ng/mL
[10] = cited from earlier work
[11] = axitinib: Rugo et al. 2005; ranibizumab, aflibercept: in the human eye; cited from earlier work
[12] = tested on: VEGF-induced retinal vascular leakage; experiment: VEGF challenge study, leakage score over time (Example 14); assay type: in vivo, Dutch Belted rabbit; conditions: fluorescein angiography, 0 no leakage, 4 no inhibition of leakage
retinal vessel leakage = experiment: In vivo VEGF challenge study, leakage by fluorescein angiography; conditions: rabbit VEGF challenge, scale 0 to 4
Source text: The scoring criteria is based on Table 37B.

[13] = listed as Polymorph IV micronized

O=C(O)[C@H](O)[C@@H](O)C(=O)O [(+)-L-Tartaric acid]
HPLC Purity after stability studies 25° C./60% RH [1]: 96.66
HPLC Purity after stability studies 40° C./75% RH [1]: 96.24
HPLC Purity after stability studies 80° C. [1]: 93.24
Stability-3 days slurry in H2O (25° C.) and 4 days drying at 32° C./0% RH, HPLC [1]: 97.50

CNC(=O)c1ccccc1Sc1ccc2c(/C=C/c3ccccn3)nn(COC(=O)CCC(=O)O)c2c1 [Axitinib N-Succinoyloxymethyl Prodrug]
Mean Solubility [2]: 217.44 µg/mL
solubility at 24 h [2]: 217 µg/mL (≈ 421 µM)
Obtained Conc. (replicate) [2]: 222.06 µg/mL and 212.82 µg/mL

CNC(=O)c1ccccc1Sc1ccc2c(/C=C/c3ccccn3)nn(COC(=O)CCOC)c2c1 [Axitinib N-m(PEG)1-oxymethyl Prodrug, 3-Methoxy-propionic acid 6-(2-methylcarbamoyl-phenylsulfanyl)-3-((E)-2-pyridin-2-yl-vinyl)-indazol-1-ylmethyl ester]
Mean Solubility [2]: Not soluble
Conc. (replicate) [3]: BLOQ (“BLOQ” means “below limit of quantification”. i.e., <0.781 μg/mL)

CNC(=O)c1ccccc1Sc1ccc2c(/C=C/c3ccccn3)nn(COC(=O)CCOCCOC)c2c1 [Axitinib N-m(PEG)2-oxymethyl Prodrug, 3-(2-Methoxy-ethoxy)-propionic acid 6-(2-methylcarbamoyl-phenylsulfanyl)-3-((E)-2-pyridin-2-yl-vinyl)-indazol-1-ylmethylester]
solubility at 24 h [2]: 1.1 µg/mL (≈ 2.01 µM)
Conc. (replicate) [3]: 1112 ng/mL and 1086 ng/mL

CNC(=O)c1ccccc1Sc1ccc2c(/C=C/c3ccccn3)nn(COC(=O)CCOCCOCCOC)c2c1 [Axitinib N-m(PEG)3-oxymethyl Prodrug, 3-[2-(2-Methoxy-ethoxy)-ethoxy]-propionic acid 6-(2-methylcarbamoyl-phenylsulfanyl)-3-((E)-2-pyridin-2-yl-vinyl)-indazol-1-ylmethyl ester]
solubility at 24 h [2]: 6.16 µg/mL (≈ 10.4 µM)
Conc. (replicate) [3]: 6179 ng/mL and 6146 ng/mL

CNC(=O)c1ccccc1Sc1ccc2c(/C=C/c3ccccn3)nn(COC(=O)CCOCCOCCOCCOC)c2c1 [Axitinib N-m(PEG)4-oxymethyl Prodrug]
solubility at 24 h [2]: 99.4 µg/mL (≈ 157 µM)
Obtained Conc. (replicate) [2]: 100.16 µg/mL and 98.58 µg/mL

O=C(O)CCCC(=O)O [Glutaric acid]
HPLC Purity after stability studies 25° C./60% RH [1]: 90.81
HPLC Purity after stability studies 40° C./75% RH [1]: 99.31
HPLC Purity after stability studies 80° C. [1]: 99.44
Stability-3 days slurry in H2O (25° C.) and 4 days drying at 32° C./0% RH, HPLC [1]: 99.80
Thermodynamic solubility in PBS, pH 7.4 at 37° C., 2 hours ([4]; 2 hours): LOD
Thermodynamic solubility in PBS, pH 7.4 at 37° C., 4 hours ([4]; 4 hours): LOD
Thermodynamic solubility in PBS, pH 7.4 at 37° C., 24 hours ([4]; 24 hours): LOD

CNC(=O)c1ccccc1Sc1ccc2c(/C=C/c3ccccn3)n[nH]c2c1 [Polymorph IV, axitinib]
chemical and physical stability in an implant [5]: chemically and physically stable

CNC(=O)c1ccccc1Sc1ccc2c(/C=C/c3ccccn3)n[nH]c2c1 [SAB-I micronized]
Solubility in PBS, Day 1 [6]: 0.236 µg/mL (≈ 0.611 µM)
Solubility in PBS, Day2 [6]: 0.265 µg/mL (≈ 0.686 µM)
Solubility in PBS, Day 5 [6]: 0.216 µg/mL (≈ 0.559 µM)
Solubility in PBS, Day 6 [6]: 0.226 µg/mL (≈ 0.585 µM)
Solubility in PBS, Day 8 [6]: 0.237 µg/mL (≈ 0.613 µM)

CNC(=O)c1ccccc1Sc1ccc2c(/C=C/c3ccccn3)n[nH]c2c1 [SAB-I non-micronized]
Solubility in PBS, Day 1 [6]: 0.153 µg/mL (≈ 0.396 µM)
Solubility in PBS, Day2 [6]: 0.228 µg/mL (≈ 0.59 µM)
Solubility in PBS, Day 5 [6]: 0.190 µg/mL (≈ 0.492 µM)
Solubility in PBS, Day 6 [6]: 0.194 µg/mL (≈ 0.502 µM)
Solubility in PBS, Day 8 [6]: 0.188 µg/mL (≈ 0.486 µM)

CNC(=O)c1ccccc1Sc1ccc2c(/C=C/c3ccccn3)n[nH]c2c1 [SAB-I super-micronized]
Solubility in PBS, Day 1 [6]: 0.246 µg/mL (≈ 0.637 µM)
Solubility in PBS, Day2 [6]: 0.277 µg/mL (≈ 0.717 µM)
Solubility in PBS, Day 5 [6]: 0.256 µg/mL (≈ 0.662 µM)
Solubility in PBS, Day 6 [6]: 0.253 µg/mL (≈ 0.655 µM)
Solubility in PBS, Day 8 [6]: 0.247 µg/mL (≈ 0.639 µM)

CNC(=O)c1ccccc1Sc1ccc2c(/C=C/c3ccccn3)n[nH]c2c1 [SAB-I, axitinib]
solubility at 5 days (Solubility of axitinib): 0.2 µg/mL (≈ 0.517 µM)

CNC(=O)c1ccccc1Sc1ccc2c(/C=C/c3ccccn3)n[nH]c2c1 [axitinib polymorph IV]
Equilibrium solubility in PBS, Average (Days 5-8) [6]: about 0.435 μg/mL
Equilibrium solubility in PBS, Average (Days 5-8) [6, 13]: 0.435 µg/mL
Solubility in PBS, Day 1 [6, 13]: 0.678 µg/mL (≈ 1.75 µM)
Solubility in PBS, Day2 [6, 13]: 0.479 µg/mL (≈ 1.24 µM)
Solubility in PBS, Day 5 [6, 13]: 0.413 µg/mL (≈ 1.07 µM)
Solubility in PBS, Day 6 [6, 13]: 0.443 µg/mL (≈ 1.15 µM)
Solubility in PBS, Day 8 [6, 13]: 0.449 µg/mL (≈ 1.16 µM)

CNC(=O)c1ccccc1Sc1ccc2c(/C=C/c3ccccn3)n[nH]c2c1 [axitinib polymorph SAB-I]
solubility in PBS ([6]; PBS pH 7.2 to 7.4, 37° C., after five days of incubation): less than 0.3 μg/mL
solubility (physchem [7]; solubility in 25%/75% (v/v) ethanol/water): 13.4 µg/mL (≈ 34.7 µM)
solubility thermodynamic at 5 days (physchem [8]): ~0.223 µg/mL (≈ 0.577 µM)

CNC(=O)c1ccccc1Sc1ccc2c(/C=C/c3ccccn3)n[nH]c2c1 [axitinib, N-methyl-2-[3-((E)-2-pyridin-2-yl-vinyl)-1H-indazol-6-ylsulfanyl]-benzamide]
solubility (physchem [7]; mean solubility value in 25%/75% (v/v) ethanol/water): 18.3 µg/mL (≈ 47.4 µM)
Axitinib concentrations in plasma [9]: No measurable amount of axitinib was detected
vitreous half-life [10]: 2 h
clearance half-life (t1/2) [11]: a few hours

Bevacizumab: Avastin (bevacizumab), comparator in the VEGF challenge study
Leakage Scores (average) ([12]; Day 7): 0.0
Leakage Scores (average) ([12]; Day 17): 0.0
Leakage Scores (average) ([12]; Day 31): 0.0
Leakage Scores (average) ([12]; Day 45): 1.0
Leakage Scores (average) ([12]; Day 59): 3.1
Leakage Scores (average) ([12]; Day 73): 3.7
leakage score (mean) (retinal vessel leakage; after 60 days, untreated eyes 3.2): 3.1
leakage score (mean) (retinal vessel leakage; going further beyond 60 days): 3.7
leakage score (mean) (retinal vessel leakage; up to 31 days): 0.0

Citric Acid
HPLC Purity after stability studies 25° C./60% RH [1]: 90.78
HPLC Purity after stability studies 40° C./75% RH [1]: 93.23
HPLC Purity after stability studies 80° C. [1]: 86.88
Stability-3 days slurry in H2O (25° C.) and 4 days drying at 32° C./0% RH, HPLC [1]: 96.24

Fumaric Acid
HPLC Purity after stability studies 25° C./60% RH [1]: 99.60
HPLC Purity after stability studies 40° C./75% RH [1]: 99.64
HPLC Purity after stability studies 80° C. [1]: 99.47
Stability-3 days slurry in H2O (25° C.) and 4 days drying at 32° C./0% RH, HPLC [1]: 99.76

aflibercept: anti-VEGF agent, aflibercept intravitreal injection by Regeneron
clearance half-life (t1/2) [11]: several days

ranibizumab: anti-VEGF agent, ranibizumab injection by Genentech
clearance half-life (t1/2) [11]: several days
